Experiments:
severe SMA mouse model [1] = assay: Whole-body plethysmography, breathing function at PD7; type: in vivo; conditions: for respiratory parameters under hypoxia (11% O2): 40 mg/kg s.c. at PD0, PD7
Text: The majority of patients with SMA suffer from compromised breathing functions and rely on an external source of breathing support. To evaluate the effects of DG9-PMO treatment on breathing function, we performed whole-body plethysmography recordings at PD7 under normoxic (21% O2) and hypoxic (11% O2) conditions (Figure 3A). […] The NT mice on the other hand had slow, irregular breathing denoted by a higher coefficient of variation of frequency (CV, a measure of relative variability) and marked apneas (absence of airflow/pressure changes for a period equivalent to or greater than 2 complete respiratory cycles) (Figure 3, B and F).
Measurements were performed in whole-body, cylindrical, transparent, plexiglass plethysmographs (Validyne Engineering) that had 1 inflow and 2 outflow ports for the continuous delivery of fresh room air and removal of expired carbon dioxide ([75], [76]). […] The gas was mixed with gas mixer (GSM-3, CWE), delivered from compressed pure oxygen and pure nitrogen cannisters, being monitored using 0–200 mL/min gas regulators (Porter Instrument Company). […] For PD30, the plethysmograph was recorded at RT of around 22°C. Pressure changes were detected with a pressure transducer (DP 103; Validyne) and signal conditioner (CD-15; Validyne), recorded with data acquisition software (Axoscope) via analog-digital board (Digidata 1322A). […] VT and fR were measured with blood pressure settings using Labchart 8 (ADInstruments). Threshold levels for bursts were set, and bursts were then automatically detected so that frequency (calculated from cycle duration) and VT (calculated from maximal pressure minus minimal pressure) values were interpreted. […]
Respiratory parameters were calculated over an average of 1 minute of continuous plethysmography recordings. […]

[2] = test system: neuromuscular junctions of SMA mice; assay: NMJ staining, innervation of quadriceps and intercostal muscles; type: in vivo, mouse; conditions: 40 mg/kg s.c. at PD0, quadriceps and intercostal muscles at PD30, 300–500 NMJs per group
Text: We assessed the NMJ architecture of the quadriceps and the intercostal muscles at PD30 to understand the phenotypic rescue following injections at PD0 (Figure 5A). […] Although there was no statistical significance, we observed upregulation of both atrogenes in the unconjugated PMO–treated mice and upregulation of only Atrogin-1 in MOE-treated mice in the quadriceps muscle at approximately PD30. […] We also evaluated the expressions of muscle specific kinase (MuSK) and acetylcholine receptor alpha (AChRα), which play a crucial role in NMJ formation and maintenance ([46]–[50]). […] The findings corroborate our hypothesis that DG9-PMO treatment rescues the crosstalk between the muscle and the neurons by improving muscle pathology and the characteristics of NMJs.
NMJ staining was carried out as previously described ([71]). Briefly, the quadriceps and the intercostal muscle were fixed in 4 % paraformaldehyde (PFA) for 2 hours. The muscles were washed quickly with PBS and blocked with 5% goat serum and 2 % Triton-X in PBS for 1 hour at RT. This was followed by overnight incubation at 4°C with the primary mouse monoclonal antibodies anti-neurofilament clone 2H3 (1:100) and […] (1:500) (DSHB). […] The synaptic area was quantified using ImageJ. […]

severe SMA mouse model [3] = assay: Muscle pathology by H&E staining (myofiber size, centrally nucleated fibers); type: in vivo
Text: Atrophic musculature is a classical characteristic feature of SMA with diminished skeletal muscle fiber size. To determine the treatment effects on muscle pathology, we assessed the physiology and architecture of the myofibers of 2 affected muscle groups, the quadriceps and intercostal muscles, as well as the sparingly affected diaphragm at PD7 and PD30 ([42], [43]). We quantified the cross-sectional area (CSA), the minimal Feret’s diameter, and centrally nucleated fibers, a hallmark of pathological muscle degeneration/regeneration cycle, for at least 500 myofibers per muscle for each treatment using hematoxylin and eosin (H&E) staining at PD7 and PD30 (Figure 4, A and B, and Supplemental Figures 5 and 6). […] The effect of DG9-PMO persisted at PD30 (Supplemental Figure 6).
Cryosections (7 μm) of the quadriceps muscle, diaphragm, and intercostal muscle were stained with Meyer’s H&E reagents (Electron Microscopy Reagents) ([70]). For the centrally nucleated fibers and myofiber size, 500–800 were randomly selected per muscle per treatment. The CSA and minimal Feret’s diameter were quantified using ImageJ (NIH). All H&E analyses were performed in a blinded fashion.

Compound: CC(=O)N[C@@H](Cc1ccc(O)cc1)C(=O)N[C@@H](C)C(=O)N[C@H](CCCNC(=N)N)C(=O)N[C@H](C(=O)N[C@@H](CCCNC(=N)N)C(=O)N[C@@H](CCCNC(=N)N)C(=O)N[C@H](CCCNC(=N)N)C(=O)NCC(=O)N1CCC[C@H]1C(=O)N[C@@H](CCCNC(=N)N)C(=O)NCC(=O)N[C@@H](Cc1ccc(O)cc1)C(=O)N[C@@H](C)C(=O)N[C@H](CCCNC(=N)N)C(=O)N[C@H](C(=O)N[C@@H](CCCNC(=N)N)C(=O)N[C@@H](CCCNC(=N)N)C(=O)N[C@H](CCCNC(=N)N)C(=O)NCC(=O)N1CCC[C@H]1C(=O)N[C@@H](CCCNC(=N)N)C(=O)N[C@H](CCCNC(=N)N)C(=O)N1C[C@@H](COP(=O)(N(C)C)N2C[C@@H](COP(=O)(N(C)C)N3C[C@@H](COP(=O)(N(C)C)N4C[C@@H](COP(=O)(N(C)C)N5C[C@@H](COP(=O)(N(C)C)N6C[C@@H](COP(=O)(N(C)C)N7C[C@@H](COP(=O)(N(C)C)N8C[C@@H](COP(=O)(N(C)C)N9C[C@@H](COP(=O)(N(C)C)N%10C[C@@H](COP(=O)(N(C)C)N%11C[C@@H](COP(=O)(N(C)C)N%12C[C@@H](COP(=O)(N(C)C)N%13C[C@@H](COP(=O)(N(C)C)N%14C[C@@H](COP(=O)(N(C)C)N%15C[C@@H](COP(=O)(N(C)C)N%16C[C@@H](COP(=O)(N(C)C)N%17C[C@@H](COP(=O)(N(C)C)N%18C[C@@H](COP(=O)(N(C)C)N%19CCC(C(N)=O)CC%19)O[C@@H](n%19cc(C)c(=O)[nH]c%19=O)C%18)O[C@@H](n%18ccc(N)nc%18=O)C%17)O[C@@H](n%17cnc%18c(N)ncnc%18%17)C%16)O[C@@H](n%16ccc(N)nc%16=O)C%15)O[C@@H](n%15cc(C)c(=O)[nH]c%15=O)C%14)O[C@@H](n%14cc(C)c(=O)[nH]c%14=O)C%13)O[C@@H](n%13cc(C)c(=O)[nH]c%13=O)C%12)O[C@@H](n%12ccc(N)nc%12=O)C%11)O[C@@H](n%11cnc%12c(N)ncnc%12%11)C%10)O[C@@H](n%10cc(C)c(=O)[nH]c%10=O)C9)O[C@@H](n9cnc%10c(N)ncnc%109)C8)O[C@@H](n8cnc9c(N)ncnc98)C7)O[C@@H](n7cc(C)c(=O)[nH]c7=O)C6)O[C@@H](n6cnc7c(=O)[nH]c(N)nc76)C5)O[C@@H](n5ccc(N)nc5=O)C4)O[C@@H](n4cc(C)c(=O)[nH]c4=O)C3)O[C@@H](n3cnc4c(=O)[nH]c(N)nc43)C2)O[C@@H](n2cnc3c(=O)[nH]c(N)nc32)C1)C(C)C)C(C)C (some centres unmarked) [DG9-PMO]
- respiratory parameters under hypoxia (11% O2) (severe SMA mouse model [1]): increase in the respiratory parameters fR, VE, and VT relative to normoxia
- respiratory phenotype under normoxic conditions (21% O2) (severe SMA mouse model [1]; 40 mg/kg s.c. at PD0, PD7, majority of the mice): did not exhibit any respiratory phenotype
- full innervation of peripheral synapses (NMJs) [2]: more than 60%
- centrally nucleated fibers (severe SMA mouse model [3]; 40 mg/kg s.c. at PD0, PD7): significant decrease in the percentage of centrally nucleated fibers
- Feret's diameter and CSA of myofibers at PD7 compared with NT control (severe SMA mouse model [3]; 40 mg/kg s.c. at PD0, quadriceps, diaphragm, intercostal muscle): significantly larger in all 3 muscle groups

Compound: unconjugated PMO: PMO targeting ISS-N1 intron 7 (5′ TCACTTTCATAATGCTGG 3′), purchased from Gene Tools LLC (all phosphorodiamidate morpholino (PMO)) [reference compound]
- respiratory parameters under hypoxia (11% O2) (severe SMA mouse model [1]): slow, weak, and irregular breathing when compared with the Hets
- full innervation of peripheral synapses (NMJs) [2]: 40%–50%
- myofiber size at PD30 compared with DG9-PMO (severe SMA mouse model [3]; 40 mg/kg s.c. at PD0, all 3 tissue types): significantly smaller myofibers

— article PMC10077475, “DG9-conjugated morpholino rescues phenotype in SMA mice by reaching the CNS via a subcutaneous administration” (JCI Insight, 2023)
